Results published in patent US9382230B2, “Methods and compositions for modulating Ire1, SRC and ABL activity” (The Regents of the University of California, priority 2008, dated 2016).

test system: Xbp-1 mRNA splicing (UPR activation through Ire1) in HEK293 cells; assay: XBP-1 mRNA splicing by RT-PCR in HEK293 cells (UPR); type: cell-based, mammalian; conditions: Tm 0.3 ug/ml + compound 2 μM; Hek293 cells treated for 4 hrs; RT-PCR
Experimental: The effect of tunicamycin, SU11248, DJM2005, APY24, and APY29 on Ire1 activity was tested in mammalian cells using HEK293 cells as a model system. Cells were treated according to the methods described in Lin J H et al., Science 318:944 (2007). After treatment with the corresponding agents for the indicated time, Xbp-1 mRNA splicing was determined by RT-PCR. Unspliced (u) and spliced (s) Xbp1-mRNA products are indicated and serve as a measure of UPR activation through Ire1.
Exemplary compounds were assayed for their effect on UPR. Results are set forth in FIGS. 18-19 and in the table below.

Compound	% splicing mRNA XBP-I Average
N#CCc1ccc(Nc2nccc(Nc3cc(C4CCCC4)n[nH]3)n2)cc1 [APY67]	21%
N#CCc1ccc(Nc2nccc(Nc3cc(C4CCCCC4)n[nH]3)n2)cc1 [APY34]	7%
Cc1cc(Nc2cc(C3CCC3)n[nH]2)nc(Nc2ccc(CC#N)cc2)n1 [APY83]	29%
N#CCc1ccc(Nc2nc(Nc3cc(C4CCCC4)n[nH]3)c3ccccc3n2)cc1 [APY78]	11%
N#CCc1ccc(Nc2nc(Nc3cc(C4CCC4)n[nH]3)c3ccccc3n2)cc1 [APY82]	27%
OCCc1ccc(Nc2nccc(Nc3cc(C4CCCC4)n[nH]3)n2)cc1 [APY76]	11%
CC(=O)Nc1ccc(Nc2nccc(Nc3cc(C4CCCC4)n[nH]3)n2)cc1 [APY75]	44%
CC(=O)Nc1ccc(Nc2nccc(Nc3cc(C4CCCCC4)n[nH]3)n2)cc1 [APY36]	16%
N#CCc1ccc(Nc2nccc(Nc3cc(-c4cccs4)n[nH]3)n2)cc1 [APY84]	12%
Cc1cc(Nc2cc(C3CCCC3)n[nH]2)nc(Nc2ccc(CC#N)cc2)n1 [APY80]	9%
N#CCc1ccc(Nc2nc(Nc3cc(C4CC4)n[nH]3)c3ccccc3n2)cc1 [APY65]	29%
Cc1ccc(-c2cc(Nc3nc(Nc4ccc(CC#N)cc4)nc4ccccc34)[nH]n2)s1 [APY85]	13%

same assay, conditions: Tm alone; Hek293 cells treated for 4 hrs; RT-PCR

Compound	% splicing mRNA XBP-I Average
tunicamycin [Tm, reference compound]	78%

same assay, conditions: compound 2 μM; Hek293 cells treated for 4 hrs; RT-PCR

Compound	% splicing mRNA XBP-I Average
N#CCc1ccc(Nc2nccc(Nc3cc(C4CCCC4)n[nH]3)n2)cc1 [APY67]	20%
N#CCc1ccc(Nc2nccc(Nc3cc(C4CCCCC4)n[nH]3)n2)cc1 [APY34]	12%
Cc1cc(Nc2cc(C3CCC3)n[nH]2)nc(Nc2ccc(CC#N)cc2)n1 [APY83]	21%
N#CCc1ccc(Nc2nc(Nc3cc(C4CCCC4)n[nH]3)c3ccccc3n2)cc1 [APY78]	11%
N#CCc1ccc(Nc2nc(Nc3cc(C4CCC4)n[nH]3)c3ccccc3n2)cc1 [APY82]	29%
OCCc1ccc(Nc2nccc(Nc3cc(C4CCCC4)n[nH]3)n2)cc1 [APY76]	23%
CC(=O)Nc1ccc(Nc2nccc(Nc3cc(C4CCCC4)n[nH]3)n2)cc1 [APY75]	9%
CC(=O)Nc1ccc(Nc2nccc(Nc3cc(C4CCCCC4)n[nH]3)n2)cc1 [APY36]	10%
N#CCc1ccc(Nc2nccc(Nc3cc(-c4cccs4)n[nH]3)n2)cc1 [APY84]	21%
Cc1cc(Nc2cc(C3CCCC3)n[nH]2)nc(Nc2ccc(CC#N)cc2)n1 [APY80]	12%
N#CCc1ccc(Nc2nc(Nc3cc(C4CC4)n[nH]3)c3ccccc3n2)cc1 [APY65]	22%
Cc1ccc(-c2cc(Nc3nc(Nc4ccc(CC#N)cc4)nc4ccccc34)[nH]n2)s1 [APY85]	15%

same assay, conditions: compound 10 μM; Hek293 cells treated for 4 hrs; RT-PCR

Compound	% splicing mRNA XBP-I Average
N#CCc1ccc(Nc2nccc(Nc3cc(C4CCCC4)n[nH]3)n2)cc1 [APY67]	66%
N#CCc1ccc(Nc2nccc(Nc3cc(C4CCCCC4)n[nH]3)n2)cc1 [APY34]	34%
Cc1cc(Nc2cc(C3CCC3)n[nH]2)nc(Nc2ccc(CC#N)cc2)n1 [APY83]	55%
N#CCc1ccc(Nc2nc(Nc3cc(C4CCCC4)n[nH]3)c3ccccc3n2)cc1 [APY78]	27%
N#CCc1ccc(Nc2nc(Nc3cc(C4CCC4)n[nH]3)c3ccccc3n2)cc1 [APY82]	27%
OCCc1ccc(Nc2nccc(Nc3cc(C4CCCC4)n[nH]3)n2)cc1 [APY76]	39%
CC(=O)Nc1ccc(Nc2nccc(Nc3cc(C4CCCC4)n[nH]3)n2)cc1 [APY75]	17%
CC(=O)Nc1ccc(Nc2nccc(Nc3cc(C4CCCCC4)n[nH]3)n2)cc1 [APY36]	19%
N#CCc1ccc(Nc2nccc(Nc3cc(-c4cccs4)n[nH]3)n2)cc1 [APY84]	60%
Cc1cc(Nc2cc(C3CCCC3)n[nH]2)nc(Nc2ccc(CC#N)cc2)n1 [APY80]	28%
N#CCc1ccc(Nc2nc(Nc3cc(C4CC4)n[nH]3)c3ccccc3n2)cc1 [APY65]	51%
Cc1ccc(-c2cc(Nc3nc(Nc4ccc(CC#N)cc4)nc4ccccc34)[nH]n2)s1 [APY85]	14%

same assay, conditions: summary statement

Compound	in vivo activation of Ire1
Cc1cc(Nc2cc(C3CCC3)n[nH]2)nc(Nc2ccc(CC#N)cc2)n1 [APY83]	significant in vivo activation
N#CCc1ccc(Nc2nc(Nc3cc(C4CCC4)n[nH]3)c3ccccc3n2)cc1 [APY82]	significant in vivo activation
OCCc1ccc(Nc2nccc(Nc3cc(C4CCCC4)n[nH]3)n2)cc1 [APY76]	significant in vivo activation
N#CCc1ccc(Nc2nccc(Nc3cc(-c4cccs4)n[nH]3)n2)cc1 [APY84]	significant in vivo activation
N#CCc1ccc(Nc2nc(Nc3cc(C4CC4)n[nH]3)c3ccccc3n2)cc1 [APY65]	significant in vivo activation

test system: Ire1; assay: Summary statement of Ire1 activation or inhibition (assay not specified); conditions: not given

Compound	activation of Ire1	inhibition of Ire1
N#CCc1ccc(Nc2nccc(Nc3cc(C4CCCC4)n[nH]3)n2)cc1 [APY67]	significant activation	
Cc1cc(Nc2cc(C3CCC3)n[nH]2)nc(Nc2ccc(CC#N)cc2)n1 [APY83]	significant activation	
OCCc1ccc(Nc2nccc(Nc3cc(C4CCCC4)n[nH]3)n2)cc1 [APY76]	significant activation	
N#CCc1ccc(Nc2nccc(Nc3cc(-c4cccs4)n[nH]3)n2)cc1 [APY84]		significant inhibition
Cc1cc(Nc2cc(C3CCCC3)n[nH]2)nc(Nc2ccc(CC#N)cc2)n1 [APY80]		significant inhibition
N#CCc1ccc(Nc2nc(Nc3cc(C4CC4)n[nH]3)c3ccccc3n2)cc1 [APY65]	significant activation	
Cc1ccc(-c2cc(Nc3nc(Nc4ccc(CC#N)cc4)nc4ccccc34)[nH]n2)s1 [APY85]	significant activation	

biological target: T1, yIre1 (Saccharomyces cerevisiae, UniProt P32361); assay: RNA cleavage-based yIre1 activation assay; type: biochemical, yeast; set-up: unit not given here; conditions: 3 μM yIre1, stem loop RNA, 15 μM effector
T1 construct: GST (N); made in house; host or cells: E. coli BL21 CodonPlus (RIPL)
T1 sequence (P32361 with tags, fused parts or gaps limits assumed): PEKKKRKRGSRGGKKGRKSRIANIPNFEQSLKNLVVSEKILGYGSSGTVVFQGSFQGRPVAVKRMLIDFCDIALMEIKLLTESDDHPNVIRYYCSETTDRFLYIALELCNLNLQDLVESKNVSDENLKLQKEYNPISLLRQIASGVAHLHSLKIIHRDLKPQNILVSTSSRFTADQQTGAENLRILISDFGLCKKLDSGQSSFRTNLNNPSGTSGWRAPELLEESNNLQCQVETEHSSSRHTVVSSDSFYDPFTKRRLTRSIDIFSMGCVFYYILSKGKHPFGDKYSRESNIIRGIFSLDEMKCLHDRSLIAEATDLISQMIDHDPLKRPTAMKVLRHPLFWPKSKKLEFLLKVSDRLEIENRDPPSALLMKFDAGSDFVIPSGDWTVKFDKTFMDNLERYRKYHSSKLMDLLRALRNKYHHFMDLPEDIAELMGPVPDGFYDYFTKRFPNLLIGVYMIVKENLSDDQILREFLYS
Experimental: The RNase Cleavage Assay.
RNA cleavage reactions were conducted at 30° C. in buffer containing 20 mM HEPES (pH 7.5), 70 mM NaCl, 2 mM ADP (pH 7.0), 2 mM Mg(OAc)2, 5 mM DTT, 5% glycerol, less than 1 nM ^32p-labeled RNA substrate, and 3 nM-20 μM Ire1. Reaction solutions and buffers were designed using Biochem Lab Solutions 3.5. Reactions were prepared such that 1 μl of RNA was added to 9 μl of pre-warmed reaction mixture containing all components except RNA. Typically, 3-10 minute time courses were collected starting from 5 seconds for the first time point. At time intervals, 1 μl of solution was withdrawn from each reaction and mixed wish 6 μl stop solution containing 10 M urea, 0.1% SDS, 0.1 mM EDTA, 0.05% xylene cyanol, and 0.05% bromophenol blue. The samples were separated by a denaturing 10% PAGE and exposed on a phosphor storage screen. The screens were scanned on a Storm or a Typhoon instrument and quantified using ImageQuant 5.0 or GelQuant.NET 1.4 programs. The data were plotted and fit in SigmaPlot 6.0.
RNA cleavage can be used to assess yIre1 activation as shown by FIG. 20 and the table below (3 μM yIre1, stem loop RNA, 15 μM effector): […]

Compound	RNA cleavage (yIre1 activation)
N#CCc1ccc(Nc2nccc(Nc3cc(C4CCCC4)n[nH]3)n2)cc1 [APY67]	0.006034
N#CCc1ccc(Nc2nccc(Nc3cc(C4CCCCC4)n[nH]3)n2)cc1 [APY34]	0.0014
Cc1cc(Nc2cc(C3CCC3)n[nH]2)nc(Nc2ccc(CC#N)cc2)n1 [APY83]	0.02693
OCCc1ccc(Nc2nccc(Nc3cc(C4CCCC4)n[nH]3)n2)cc1 [APY76]	0.03994
CC(=O)Nc1ccc(Nc2nccc(Nc3cc(C4CCCC4)n[nH]3)n2)cc1 [APY75]	0.00175
CC(=O)Nc1ccc(Nc2nccc(Nc3cc(C4CCCCC4)n[nH]3)n2)cc1 [APY36]	0.000897
N#CCc1ccc(Nc2nccc(Nc3cc(-c4cccs4)n[nH]3)n2)cc1 [APY84]	0.004672
Cc1ccc(-c2cc(Nc3nc(Nc4ccc(CC#N)cc4)nc4ccccc34)[nH]n2)s1 [APY85]	0.003287

Now from value to compound:

RNA cleavage (yIre1 activation)	Compound
0.002028	N#CCc1ccc(Nc2nc(Nc3cc(C4CCCC4)n[nH]3)c3ccccc3n2)cc1 [APY78]
0.002172	N#CCc1ccc(Nc2nc(Nc3cc(C4CCC4)n[nH]3)c3ccccc3n2)cc1 [APY82]
0.000626	N#CCc1ccc(Nc2nc(Nc3cc(C4CCCCC4)n[nH]3)c3ccccc3n2)cc1 [APY79]
0.001022	Cc1cc(Nc2cc(C3CCCC3)n[nH]2)nc(Nc2ccc(CC#N)cc2)n1 [APY80]
0.005304	N#CCc1ccc(Nc2nc(Nc3cc(C4CC4)n[nH]3)c3ccccc3n2)cc1 [APY65]

test system: XBP1-GFP reporter in Hek293-FT cells; assay: FACS on Hek293-FT cells transfected with XBP1-GFP reporter; type: cell-based; conditions: Tm 0.3 ug/ml + compound 2 uM; treated for 24 hrs
Experimental: Exemplary compounds were assayed and the results are set froth in the table below.

Compound	% fold induction to Control	Mean fluorescence
N#CCc1ccc(Nc2nccc(Nc3cc(C4CCCC4)n[nH]3)n2)cc1 [APY67]	−6%	2289
N#CCc1ccc(Nc2nccc(Nc3cc(C4CCCCC4)n[nH]3)n2)cc1 [APY34]	78%	4318

same assay, conditions: Tm alone; treated for 24 hrs

Compound	% fold induction to Control	Mean fluorescence
tunicamycin [Tm, reference compound]	59%	3869

same assay, conditions: compound 2 uM; treated for 24 hrs

Compound	% fold induction to Control	Mean fluorescence
N#CCc1ccc(Nc2nccc(Nc3cc(C4CCCC4)n[nH]3)n2)cc1 [APY67]	−4%	2326
N#CCc1ccc(Nc2nccc(Nc3cc(C4CCCCC4)n[nH]3)n2)cc1 [APY34]	17%	2836
